For one test, the system named is Human betaherpesvirus 5. The test can be described thus: Compound was evaluated for the antiviral activity against HCMV. The test is classed as functional, organism-based.
In the next test the test system is Human alphaherpesvirus 1. The test can be described thus: Compound was evaluated for the antiviral activity against HSV-1. The test is classed as functional, organism-based.
The next test concerns Human alphaherpesvirus 2. As to the kind of experiment: Compound was evaluated for the antiviral activity against HSV-2. The test is classed as functional, organism-based.
For test [1], the system named is Human immunodeficiency virus 1. As to the kind of experiment: Compound was evaluated for the antiviral activity against HIV-1. The test is classed as functional, organism-based.
Test [2] is described as follows: Compound was evaluated for its cytotoxicity. The test is classed as functional.

Each structure is given as a SMILES string. In brackets after ≈: the same amount, converted by molar mass. Bounds are passed on as bounds.

Regarding `C=C1[C@H](CO)OC[C@@H]1n1cnc2c(N)ncnc21`, the EC50 is 33.3 µg/mL (≈ 135 µM) in the test on Human betaherpesvirus 5, over 100 µg/mL in the test with Human alphaherpesvirus 1, over 100 µg/mL with Human alphaherpesvirus 2 and over 100 µg/mL in test [1]. Besides, in test [2], the concentration for half-maximal inhibition (IC50) is over 100 µg/mL.
In the case of `C=C1[C@H](CO)OC[C@@H]1n1ccc(=O)[nH]c1=O`, the EC50 in the test on Human betaherpesvirus 5 is 10.6 µg/mL (≈ 47.3 µM); with Human alphaherpesvirus 1 it was 100 µg/mL (≈ 446 µM); with Human alphaherpesvirus 2, 100 µg/mL (≈ 446 µM); in test [1], 100 µg/mL (≈ 446 µM). This compound came in with an IC50 in test [2] of 100 µg/mL (≈ 446 µM).
Take `C=C1[C@H](CO)OC[C@@H]1n1cnc2c(O)nc(N)nc21`: the EC50 (in the test with Human betaherpesvirus 5; in the test with Human alphaherpesvirus 1; in the test with Human alphaherpesvirus 2; in test [1]) was over 100 µg/mL each time. In addition, the IC50 in test [2] is over 100 µg/mL.
Take `C=C1[C@H](CO)OC[C@@H]1n1cnc2c(O)ncnc21`: the EC50 was over 100 µg/mL with Human betaherpesvirus 5, 35 µg/mL (≈ 141 µM) in the test on Human alphaherpesvirus 1, over 100 µg/mL with Human alphaherpesvirus 2 and over 100 µg/mL in test [1]. The IC50 in test [2] is over 100 µg/mL.
Take `C=C1[C@H](CO)OC[C@@H]1n1ccc(N)nc1=O`: the EC50 (with Human betaherpesvirus 5; in the test with Human alphaherpesvirus 1; in the test on Human alphaherpesvirus 2; in test [1]) was over 100 µg/mL each time. Further, the IC50 in test [2] was over 100 µg/mL.
In the case of `Nc1nc2c(ncn2COCCO)c(=O)[nH]1` [ACYCLOVIR], the EC50 with Human alphaherpesvirus 1 is 1.05 µg/mL (≈ 4.68 µM); with Human alphaherpesvirus 2, 5.12 µg/mL (≈ 22.7 µM). The IC50 in test [2] stood at 250 µg/mL (≈ 1110 µM).
For the compound `Nc1nc2c(ncn2COC(CO)CO)c(=O)[nH]1` [GANCICLOVIR], a half-maximal effect in the test with Human betaherpesvirus 5 (EC50) was put at 0.74 µg/mL (≈ 2.9 µM). This compound also displayed an IC50 in test [2] of over 10 µg/mL.
The compound `Cc1cn([C@H]2C[C@H](N=[N+]=[N-])[C@@H](CO)O2)c(=O)[nH]c1=O` [ZIDOVUDINE] gave a concentration for a half-maximal effect (EC50) in test [1] of 0.00132 µg/mL (≈ 0.00494 µM). In test [2], this compound showed a half-maximal inhibitory concentration (IC50) of 1 µg/mL (≈ 3.74 µM).
